Here are results for 19 compounds from patent US8980911B2, “Heterocyclic compounds as protein kinase inhibitors” (Daiichi Sankyo Company, Limited, priority 2011, dated 2015).

In general, IC50 refers to the concentration at which inhibition is half-maximal.

Common to all, as to type: biochemical
The target in one test is T1, JAK1 (Homo sapiens, UniProt P23458).
T1 construct: JAK1 (aa 850-1154) and TYK2 (aa 871-1187) are expressed with an N-terminally fused GST-tag; GST (N); purchased Carna Bioscience, Inc; host or cells: baculovirus expression system
Description: In vitro enzyme assay (cell-free HTRF kinase assay), JAK1. The conditions noted are these: catalytic domain aa 850-1154, GST-tag; ATP 60 μM, SRCtide 400 nM, reaction 120 min. A digest of the protocol:
(§1)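 Catalytic-domain human kinases (baculovirus-expressed; JAK1 GST-tagged aa 850-1154, JAK2/JAK3 His-tagged) reacted with biotin-SRCtide and ATP in HEPES pH 7.5, MgCl2, DTT buffer, 1% DMSO, at room temperature. EDTA stop (10 mM final), then ULight-streptavidin/Eu-anti-phosphotyrosine overnight at 4 °C; HTRF 665/615 ratio gave IC50.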
A general note: In TR-FRET formats the signal depends on donor and acceptor labels being close together.

The target in the next test is T2, JAK3 (Homo sapiens, UniProt P52333).
T2 construct: All enzymes only contain the catalytic domain; His (N); purchased Carna Bioscience, Inc; host or cells: baculovirus expression system
Description: In vitro enzyme assay (cell-free HTRF kinase assay), JAK3. The conditions noted are these: catalytic domain, His-tag; ATP 3 μM, SRCtide 100 nM, reaction 30 min. A digest of the protocol: as §1

The target in a further test is T3, JAK2 (Homo sapiens, UniProt O60674).
T3 construct: All enzymes only contain the catalytic domain; His (N); purchased Carna Bioscience, Inc; host or cells: baculovirus expression system
Put plainly: In vitro enzyme assay (cell-free HTRF kinase assay), JAK2. The conditions noted are these: catalytic domain, His-tag; ATP 10 μM, SRCtide 25 nM, reaction 30 min. A digest of the protocol: as §1

T2 sequence (P52333 822-1111 limits assumed): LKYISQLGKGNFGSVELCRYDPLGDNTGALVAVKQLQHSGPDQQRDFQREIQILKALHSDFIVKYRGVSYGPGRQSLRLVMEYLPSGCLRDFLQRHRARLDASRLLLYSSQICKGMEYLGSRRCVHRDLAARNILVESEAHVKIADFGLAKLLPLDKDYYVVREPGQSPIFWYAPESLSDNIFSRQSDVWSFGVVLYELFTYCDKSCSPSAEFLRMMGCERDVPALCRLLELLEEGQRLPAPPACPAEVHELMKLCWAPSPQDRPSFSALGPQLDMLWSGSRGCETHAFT
T1 sequence (P23458 850-1154): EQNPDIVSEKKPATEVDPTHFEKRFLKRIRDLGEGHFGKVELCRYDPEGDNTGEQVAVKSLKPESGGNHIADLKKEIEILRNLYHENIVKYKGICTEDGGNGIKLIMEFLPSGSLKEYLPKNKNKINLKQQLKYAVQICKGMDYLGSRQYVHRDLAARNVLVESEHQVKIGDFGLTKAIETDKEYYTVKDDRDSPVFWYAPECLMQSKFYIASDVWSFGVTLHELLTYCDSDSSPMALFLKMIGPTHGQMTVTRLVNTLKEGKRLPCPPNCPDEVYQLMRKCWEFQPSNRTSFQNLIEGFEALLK
T3 sequence (O60674 849-1124 limits assumed): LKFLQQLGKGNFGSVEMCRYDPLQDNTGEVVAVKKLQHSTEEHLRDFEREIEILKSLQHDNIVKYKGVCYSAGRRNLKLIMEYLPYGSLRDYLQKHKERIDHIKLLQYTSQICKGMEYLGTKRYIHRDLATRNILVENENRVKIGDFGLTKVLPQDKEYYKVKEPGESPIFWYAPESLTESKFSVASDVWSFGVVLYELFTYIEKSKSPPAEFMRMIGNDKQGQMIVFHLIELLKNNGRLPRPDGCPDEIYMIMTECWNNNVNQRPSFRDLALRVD

For `CN(C)CCNC(=O)c1cc(F)c(C(=O)c2c[nH]c3c(NC(=O)C4CC4)nccc23)c(F)c1` [Compound No. 63, 4-({7-[(Cyclopropylcarbonyl)amino]-1H-pyrrolo[2,3-c]pyridin-3-yl}carbonyl)-N-[2-(dimethylamino)ethyl]-3,5-difluorobenzamide], the IC50 at JAK1, against JAK3 and at JAK2 was < 0.5 µM each time.

With `O=C(c1c(Cl)cccc1Cl)c1c[nH]c2c(NC(=O)C3CC3)nccc12` [Compound No. 5, N-[3-(2,6-Dichlorobenzoyl)-1H-pyrrolo[2,3-c]pyridin-7-yl]cyclopropanecarboxamide], the IC50 at JAK1, against JAK3 and against JAK2 was < 0.5 µM in each case.

In the case of `CCNCc1cc(Cl)c(C(=O)c2c[nH]c3c(NC(=O)C4CC4)nccc23)c(Cl)c1` [Compound No. 67, N-(3-{2,6-Dichloro-4-[(ethylamino)methyl]benzoyl}-1H-pyrrolo[2,3-c]pyridin-7-yl)cyclopropanecarboxamide], the IC50 at JAK1 was < 0.1 µM; against JAK3 it was < 0.1 µM; against JAK2, < 0.5 µM.

With `O=C(c1c(Cl)cc(Br)cc1Cl)c1c[nH]c2c(NC(=O)C3CC3)nccc12` [Compound No. 22, N-[3-(4-Bromo-2,6-dichlorobenzoyl)-1H-pyrrolo[2,3-c]pyridin-7-yl]cyclopropanecarboxamide], the figures for the IC50 against JAK1, against JAK3 and against JAK2 were < 0.5 µM, < 0.5 µM and < 1 µM, respectively.

As to `O=C(NCCCO)c1cc(F)c(C(=O)c2c[nH]c3c(NC(=O)C4CC4)nccc23)c(F)c1` [Compound No. 62, 4-({7-[(Cyclopropylcarbonyl)amino]-1H-pyrrolo[2,3-c]pyridin-3-yl}carbonyl)-3,5-difluoro-N-(3-hydroxypropyl)benzamide], the IC50 was < 1 µM against JAK1, < 0.5 µM on JAK3 and < 0.5 µM against JAK2.

`O=C(c1c(Cl)cccc1Cl)c1c[nH]c2cnc(NC(=O)C3CC3)cc12` [Compound No. 18, N-[3-(2,6-Dichlorobenzoyl)-1H-pyrrolo[2,3-c]pyridin-5-yl]cyclopropanecarboxamide]: the IC50 on JAK1 was < 1 µM; against JAK3, < 1 µM; against JAK2, < 0.1 µM.

In the case of `O=C(Nc1cc2c(ccn2C(=O)c2c(Cl)cccc2Cl)cn1)C1CC1` [Compound No. 120, N-[1-(2,6-Dichlorobenzoyl)-1H-pyrrolo[3,2-c]pyridin-6-yl]cyclopropanecarboxamide], the IC50 against JAK1 was < 0.1 µM; against JAK3 it was < 0.05 µM; on JAK2 it was < 0.05 µM.

With `CCNC(=O)c1cc(Cl)c(C(=O)n2ccc3cnc(NC(=O)C4CC4)cc32)c(Cl)c1` [Compound No. 130, 3,5-dichloro-4-({6-[(cyclopropylcarbonyl)amino]-1H-pyrrolo[3,2-c]pyridin-1-yl}carbonyl)-N-ethylbenzamide], the IC50 against JAK1 is < 0.5 µM; at JAK3, < 0.1 µM; at JAK2 it was < 0.05 µM.

On to `CCOCCCNC(=O)c1cc(F)c(C(=O)c2c[nH]c3c(NC(=O)C4CC4)nccc23)c(F)c1` [Compound No. 64, 4-({7-[(Cyclopropylcarbonyl)amino]-1H-pyrrolo[2,3-c]pyridin-3-yl}carbonyl)-N-(3-ethoxypropyl)-3,5-difluorobenzamide], for which the IC50 against JAK1 is < 0.5 µM; against JAK3 it was < 1 µM; at JAK2 it was < 1 µM.

In the case of `CCOC(=O)[C@H](C)NC(=O)c1cc(Cl)c(C(=O)n2ccc3c(NC(=O)C4CC4)nccc32)c(Cl)c1` [Compound No. 141, Ethyl N-[3,5-dichloro-4-({4-[(cyclopropylcarbonyl)amino]-1H-pyrrolo[3,2-c]pyridin-1-yl}carbonyl)benzoyl]alaninate], the 50% inhibitory concentration (IC50) on JAK1, on JAK3 and at JAK2 was < 1 µM in each case.

For `N#Cc1cc(Cl)c(C(=O)n2ccc3c(NC(=O)C4CC4)nccc32)c(Cl)c1` [Compound No. 86, N-[1-(2,6-Dichloro-4-cyanobenzoyl)-1H-pyrrolo[3,2-c]pyridin-4-yl]cyclopropanecarboxamide], the IC50 at JAK1 is < 1 µM; at JAK3, < 0.5 µM; against JAK2, < 0.5 µM.

Take `CN(C)CCNC(=O)c1cc(Cl)c(C(=O)n2ccc3c(NC(=O)C4CC4)nccc32)c(Cl)c1` [Compound No. 122, 3,5-Dichloro-4-({4-[(cyclopropylcarbonyl)amino]-1H-pyrrolo[3,2-c]pyridin-1-yl}carbonyl)-N-[2-(dimethylamino)ethyl]benzamide]: the IC50 at JAK1 was < 1 µM; against JAK3, < 0.1 µM; at JAK2, < 0.5 µM.

With `O=C(NCc1ccccn1)c1cc(Cl)c(C(=O)n2ccc3c(NC(=O)C4CC4)nccc32)c(Cl)c1` [Compound No. 147, 3,5-Dichloro-4-({4-[(cyclopropylcarbonyl)amino]-1H-pyrrolo[3,2-c]pyridin-1-yl}carbonyl)-N-(pyridin-2-ylmethyl)benzamide], the IC50 on JAK1, against JAK3 and against JAK2 was < 0.5 µM throughout.

`N#Cc1cc(F)c(C(=O)c2c[nH]c3c(NC(=O)C4CC4)nccc23)c(F)c1` [Compound No. 51, N-[3-(4-Cyano-2,6-difluorobenzoyl)-1H-pyrrolo[2,3-c]pyridin-7-yl]cyclopropanecarboxamide]: the 50% inhibitory concentration (IC50) is < 0.5 µM at JAK1, < 0.05 µM on JAK3 and < 0.1 µM on JAK2.

Take `CCNC(=O)c1cc(Cl)c(C(=O)n2ccc3c(NC(=O)C4CC4)nccc32)c(Cl)c1` [Compound No. 93, 3,5-Dichloro-4-({4-[(cyclopropylcarbonyl)amino]-1H-pyrrolo[3,2-c]pyridin-1-yl}carbonyl)-N-ethylbenzamide]: the values for the IC50 on JAK1, at JAK3 and at JAK2 were < 0.5 µM, < 1 µM and < 1 µM, respectively.

`CCNC(=O)c1cc(F)c(C(=O)c2c[nH]c3c(NC(=O)C4CC4)nccc23)c(F)c1` [Compound No. 60, 4-({7-[(Cyclopropylcarbonyl)amino]-1H-pyrrolo[2,3-c]pyridin-3-yl}carbonyl)-N-ethyl-3,5-difluorobenzamide]: the IC50 is < 0.5 µM against JAK1, < 0.5 µM at JAK3 and < 1 µM against JAK2.

Regarding `O=C(c1c(Cl)cc(-c2cncnc2)cc1Cl)c1c[nH]c2c(NC(=O)C3CC3)nccc12` [Compound No. 47, N-{3-[2,6-Dichloro-4-(pyrimidin-5-yl)benzoyl]-1H-pyrrolo[2,3-c]pyridin-7-yl}cyclopropanecarboxamide], the 50% inhibitory concentration (IC50) on JAK1 was < 1 µM; at JAK3, < 0.1 µM; at JAK2, < 0.1 µM.

In the case of `O=C(NCCN1CCCCC1)c1cc(Cl)c(C(=O)n2ccc3c(NC(=O)C4CC4)nccc32)c(Cl)c1` [Compound No. 150, 3,5-Dichloro-4-({4-[(cyclopropylcarbonyl)amino]-1H-pyrrolo[3,2-c]pyridin-1-yl}carbonyl)-N[2-(piperidin-1-yl)ethyl]benzamide], the IC50 against JAK1, on JAK3 and on JAK2 was < 0.5 µM throughout.

Regarding `CN(C)CCNC(=O)c1cc(Cl)c(C(=O)c2c[nH]c3c(NC(=O)C4CC4)nccc23)c(Cl)c1` [Compound No. 33, 3,5-Dichloro-4-({7-[(cyclopropylcarbonyl)amino]-1H-pyrrolo[2,3-c]pyridin-3-yl}carbonyl)-N-[2-(dimethylamino)ethyl]benzamide], the half-maximal inhibitory concentration (IC50) on JAK1, against JAK3 and against JAK2 was < 0.1 µM each time.
